Test results taken from patent US8377963B2, “Insulin-regulated aminopeptidase (IRAP) inhibitors and uses thereof” (Howard Florey Institute, priority 2007, dated 2013).

What was measured:
IRAP = molecular target: T1, IRAP (Homo sapiens, UniProt Q9UIQ6); experiment: IRAP enzymatic assay (hydrolysis of Leu-MCA); assay type: biochemical; details: substrate Leu-MCA, solubilized membranes of HEK 293T cells transfected with IRAP
T1 construct: expressed in transfected cells; host or cells: HEK 293T
Experimental: An in vitro enzymatic assay was used to initially assess IRAP inhibitory activity.
After solubilization, the membranes were pelleted by centrifugation at 23,100 g for 15 min at 4° C., and the supernatant was reserved as the source of IRAP activity. The enzymatic activities of IRAP were determined by the hydrolysis of the synthetic substrate Leu-MCA (Sigma-Aldrich, Missouri, USA) monitored by the release of a fluorogenic product, MCA, at excitation and emission wavelengths of 380 and 440 nm, respectively. Assays were performed in 96-well plates; each well contains between […] solubilized membrane protein, a range of concentration of substrate in a final volume of 100 μL 50 mM Tris-HCl buffer (pH 7.4). Non-specific hydrolysis of the substrate was corrected by subtracting the emission from incubations with membranes transfected with empty vector. Reactions proceeded at 37° C. for 30 min within a thermostatted FLEX station fluorescence microplate reader (Molecular Devices, Sunnyvale, Calif.). […] Km values of IRAP for Leu-MCA were determined from the kinetic studies. […] All data obtained were from at least three separate experiments performed in duplicate.

Recombinant human LTA4H = molecular target: T2, Recombinant human LTA4H (Homo sapiens, UniProt P09960); experiment: Leukotriene A4 hydrolase assay; assay type: biochemical; details: read-out: % inhibition of the catalytic activity of the enzyme
T2 construct: purchased Cayman Chemicals
T2 sequence (P09960 1-611): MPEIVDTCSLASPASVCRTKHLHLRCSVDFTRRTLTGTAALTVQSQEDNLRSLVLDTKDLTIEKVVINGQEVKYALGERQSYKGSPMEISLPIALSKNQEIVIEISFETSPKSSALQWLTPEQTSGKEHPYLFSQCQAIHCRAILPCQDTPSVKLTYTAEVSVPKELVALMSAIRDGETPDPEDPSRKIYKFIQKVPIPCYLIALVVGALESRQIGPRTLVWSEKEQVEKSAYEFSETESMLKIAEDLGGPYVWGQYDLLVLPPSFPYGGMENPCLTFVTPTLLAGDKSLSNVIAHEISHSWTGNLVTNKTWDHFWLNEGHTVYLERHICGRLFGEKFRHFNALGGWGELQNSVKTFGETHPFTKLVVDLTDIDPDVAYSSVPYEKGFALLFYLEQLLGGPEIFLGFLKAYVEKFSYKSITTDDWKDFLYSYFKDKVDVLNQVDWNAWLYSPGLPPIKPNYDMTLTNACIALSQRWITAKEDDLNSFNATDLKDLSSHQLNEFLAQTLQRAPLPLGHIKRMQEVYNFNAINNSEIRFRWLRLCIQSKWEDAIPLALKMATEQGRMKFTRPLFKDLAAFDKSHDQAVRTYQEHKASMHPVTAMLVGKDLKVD
Experimental: Leukotriene A4 hydrolase assay. Recombinant human LTA4H (Cayman Chemicals Michigan USA) (1-20 μg) was incubated at room temperature with alanine-p-nitroanilide as substrate in 50 mM Tris-HCl buffer, pH 8.0, containing 100 mM KCl with or without increasing concentrations of an inhibitor. The absorbance at 405 nm was measured at 10 min intervals.
(§1) Limited inhibition of control enzymes was observed.

Aminopeptidase N = molecular target: T3, Aminopeptidase N (Sus scrofa, UniProt P15145); experiment: Aminopeptidase N assay; assay type: biochemical; details: read-out: % inhibition of the catalytic activity of the enzyme
T3 construct: purchased Sigma Aldrich
T3 sequence (P15145 1-963): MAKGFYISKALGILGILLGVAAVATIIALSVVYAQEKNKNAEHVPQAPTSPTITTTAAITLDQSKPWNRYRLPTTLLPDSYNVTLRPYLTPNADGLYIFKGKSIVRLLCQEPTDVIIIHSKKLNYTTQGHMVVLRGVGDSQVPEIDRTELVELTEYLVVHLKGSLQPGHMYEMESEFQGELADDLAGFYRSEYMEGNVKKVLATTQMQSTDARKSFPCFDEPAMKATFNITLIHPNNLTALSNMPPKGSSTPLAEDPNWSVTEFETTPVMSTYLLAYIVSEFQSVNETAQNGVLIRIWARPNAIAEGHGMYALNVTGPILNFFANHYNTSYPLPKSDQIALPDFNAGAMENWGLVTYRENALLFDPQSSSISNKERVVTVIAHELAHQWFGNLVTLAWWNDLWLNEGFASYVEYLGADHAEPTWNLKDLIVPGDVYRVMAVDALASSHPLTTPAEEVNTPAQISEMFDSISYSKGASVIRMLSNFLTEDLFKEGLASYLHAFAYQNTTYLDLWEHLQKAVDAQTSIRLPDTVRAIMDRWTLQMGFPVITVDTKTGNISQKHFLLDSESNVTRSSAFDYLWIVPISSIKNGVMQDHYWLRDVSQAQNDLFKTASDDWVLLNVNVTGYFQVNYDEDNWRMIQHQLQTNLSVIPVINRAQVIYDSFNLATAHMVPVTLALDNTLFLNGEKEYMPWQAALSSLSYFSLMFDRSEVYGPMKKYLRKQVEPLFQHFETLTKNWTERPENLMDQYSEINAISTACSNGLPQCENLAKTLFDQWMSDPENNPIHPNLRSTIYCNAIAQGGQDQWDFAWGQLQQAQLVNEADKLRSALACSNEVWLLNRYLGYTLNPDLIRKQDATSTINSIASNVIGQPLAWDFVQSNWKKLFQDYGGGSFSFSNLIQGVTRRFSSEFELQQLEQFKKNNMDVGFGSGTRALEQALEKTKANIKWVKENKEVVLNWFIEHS
Experimental: Aminopeptidase N assay. 5 mU of aminopeptidase M (Sigma Aldrich) was incubated with 100 μM of substrate alanine-β-naphthylamide (Sigma Aldrich) in Tris buffered saline (50 mM Tris-HCl, 150 mM NaCl pH 7.5) at 25° C. IRAP inhibitors (1-10 μM) were added after 1 minute and fluorescence at 405 nm was followed.
as §1

[1] = molecular target: Angiotensin converting enzyme 1 (Homo sapiens, UniProt P12821); experiment: Angiotensin converting enzyme assay; assay type: biochemical; details: read-out: % inhibition of the catalytic activity of the enzyme
Chain of Angiotensin converting enzyme 1 (P12821 30-1306): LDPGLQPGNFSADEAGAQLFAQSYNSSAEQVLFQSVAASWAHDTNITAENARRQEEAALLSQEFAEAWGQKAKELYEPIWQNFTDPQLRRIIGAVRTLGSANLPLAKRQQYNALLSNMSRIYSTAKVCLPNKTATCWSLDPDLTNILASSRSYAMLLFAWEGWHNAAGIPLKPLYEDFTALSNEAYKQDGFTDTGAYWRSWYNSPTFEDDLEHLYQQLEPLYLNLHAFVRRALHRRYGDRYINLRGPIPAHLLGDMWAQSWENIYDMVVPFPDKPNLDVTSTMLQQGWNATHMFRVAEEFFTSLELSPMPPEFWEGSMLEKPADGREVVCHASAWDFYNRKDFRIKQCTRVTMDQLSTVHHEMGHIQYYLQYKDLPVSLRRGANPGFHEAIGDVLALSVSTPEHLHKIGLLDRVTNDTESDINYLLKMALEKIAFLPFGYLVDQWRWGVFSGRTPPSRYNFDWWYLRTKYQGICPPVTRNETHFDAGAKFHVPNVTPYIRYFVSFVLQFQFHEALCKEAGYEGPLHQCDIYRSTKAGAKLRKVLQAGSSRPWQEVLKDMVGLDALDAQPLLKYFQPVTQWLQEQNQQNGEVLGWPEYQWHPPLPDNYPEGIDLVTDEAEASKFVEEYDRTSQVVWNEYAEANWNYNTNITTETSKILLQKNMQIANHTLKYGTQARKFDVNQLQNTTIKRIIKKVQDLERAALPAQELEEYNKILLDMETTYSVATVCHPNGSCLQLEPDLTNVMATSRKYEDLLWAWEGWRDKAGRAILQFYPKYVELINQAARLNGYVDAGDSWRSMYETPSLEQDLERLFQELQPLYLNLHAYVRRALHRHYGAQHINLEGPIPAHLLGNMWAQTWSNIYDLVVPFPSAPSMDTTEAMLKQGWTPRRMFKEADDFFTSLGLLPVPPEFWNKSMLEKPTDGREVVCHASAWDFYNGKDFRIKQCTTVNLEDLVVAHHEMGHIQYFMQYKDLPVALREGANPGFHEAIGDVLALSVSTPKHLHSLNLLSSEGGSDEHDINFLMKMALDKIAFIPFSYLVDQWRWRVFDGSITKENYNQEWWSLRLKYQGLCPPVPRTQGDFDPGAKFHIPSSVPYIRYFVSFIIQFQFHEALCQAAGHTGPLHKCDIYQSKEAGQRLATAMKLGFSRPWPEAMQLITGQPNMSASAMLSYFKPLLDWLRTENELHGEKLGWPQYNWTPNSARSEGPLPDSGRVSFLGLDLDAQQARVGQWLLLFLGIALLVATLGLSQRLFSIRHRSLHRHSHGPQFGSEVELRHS
Experimental: Angiotensin converting enzyme assay. The enzyme (final concentration 0.02 pmol/100 L) was incubated with 200 μL of assay solution that included 5 mmol/L HHL in 100 mmol/L potassium buffer (pH 8.3) that contained 300 mmol/L NaCl and 10^−4 mol/L ZnSO4 for 3 hours at 37° C. The enzymatic reaction was stopped by the addition of 1.5 mL of 0.28N NaOH, 100 μL of o-phthaldialdehyde (20 mg/mL) in methanol was added and the fluorescent reaction stopped by the addition of 200 μL of 3N HCl. The product, L-His-Leu, was measured fluorometrically (360 nm excitation and 500 nm emission).
as §1

[2] = system: Glucose-6-phosphate dehydrogenase/glucose hexokinase; experiment: Glucose-6-phosphate dehydrogenase and hexokinase activity, fluorimetric assay; details: 100 μM
Experimental: Glucose-6-phosphate dehydrogenase and hexokinase activity. Glucose-6-phosphate dehydrogenase and hexokinase activity in the absence and presence of the compounds was determined in a fluorimetric assay. Ten mM Tris MgCl2 buffer (total volume of 200 ml) containing glucose-6-phosphate dehydrogenase, 0.3M ATP, 30 mM NADP+ was added to 96 well microtitre plate together with 20 μl of compound, a reading at excitation 350 nm and emission 510 nm was taken followed by the addition of hexokinase and another reading.

T1 sequence (Q9UIQ6 whole entry): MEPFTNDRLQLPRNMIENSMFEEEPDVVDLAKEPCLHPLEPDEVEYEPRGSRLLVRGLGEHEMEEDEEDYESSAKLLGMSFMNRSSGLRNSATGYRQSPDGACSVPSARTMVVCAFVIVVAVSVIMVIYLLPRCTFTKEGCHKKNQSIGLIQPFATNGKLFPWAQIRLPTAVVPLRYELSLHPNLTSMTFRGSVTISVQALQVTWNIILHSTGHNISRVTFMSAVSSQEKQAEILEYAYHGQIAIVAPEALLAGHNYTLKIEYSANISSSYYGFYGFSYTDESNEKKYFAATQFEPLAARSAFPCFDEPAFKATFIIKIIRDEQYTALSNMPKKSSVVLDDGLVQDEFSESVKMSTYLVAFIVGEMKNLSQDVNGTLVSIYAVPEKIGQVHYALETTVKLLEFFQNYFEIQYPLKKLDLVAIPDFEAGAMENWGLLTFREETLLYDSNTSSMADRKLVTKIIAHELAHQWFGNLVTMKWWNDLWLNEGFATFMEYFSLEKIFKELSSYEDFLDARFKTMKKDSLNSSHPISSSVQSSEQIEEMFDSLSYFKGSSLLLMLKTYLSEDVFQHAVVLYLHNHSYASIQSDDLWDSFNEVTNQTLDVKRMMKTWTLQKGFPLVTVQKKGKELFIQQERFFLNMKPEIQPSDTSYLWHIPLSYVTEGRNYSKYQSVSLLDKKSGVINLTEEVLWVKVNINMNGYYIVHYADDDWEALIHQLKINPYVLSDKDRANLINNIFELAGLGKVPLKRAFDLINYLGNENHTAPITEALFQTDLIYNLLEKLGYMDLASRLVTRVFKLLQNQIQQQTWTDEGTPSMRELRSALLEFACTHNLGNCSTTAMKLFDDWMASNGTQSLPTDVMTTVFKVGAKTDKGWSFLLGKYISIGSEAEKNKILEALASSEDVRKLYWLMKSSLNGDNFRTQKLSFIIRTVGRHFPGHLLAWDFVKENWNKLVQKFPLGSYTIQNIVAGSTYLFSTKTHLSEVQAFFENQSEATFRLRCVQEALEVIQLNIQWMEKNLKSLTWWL

SMILES	IC50 (IRAP) [nM]	Ki (IRAP; calculated from IC50=Ki(1+[S]/Km), read-out: K1) [nM]	inhibition at 10 µM (Recombinant human LTA4H; 10 μM) [%]	inhibition at 100 µM (Recombinant human LTA4H) [%]	inhibition at 10 µM (Aminopeptidase N) [%]	inhibition at 100 µM (Aminopeptidase N; 100 μM) [%]	inhibition at 10 µM [1] [%]	inhibition at 100 µM [1] [%]	% inhibition of the catalytic activity of the enzyme [2] [%]
CCOC(=O)C1=C(N)Oc2cc(O)ccc2C1c1cccnc1 (stereo not shown) [reference compound]	3000	2000							
CCOC(=O)C1=C(NC(C)=O)Oc2cc(O)ccc2C1c1cnc2ccccc2c1 (stereo not shown) [Compound 4, Ethyl 2-(acetylamino)-7-hydroxy-4-quinolin-3-yl-4H-chromene-3-carboxylate]			0	25	3	14	0	0	
CCOC(=O)C1=C(N)Oc2cc(O)ccc2C1c1cnc2ccccc2c1 (stereo not shown) [Compound 3, Ethyl 2-amino-7-hydroxy-4-quinolin-3-yl-4H-chromene-3-carboxylate]				4	12		0	3	0
